The structures appear in SMILES notation. ≈ marks a conversion by molar mass, not a printed value. Like-named read-outs stand apart in the source and are kept apart here. Some results are limits rather than exact numbers.

Holding throughout (assay type): cell-based
For assay [1], the system named is Acinetobacter calcoaceticus KCTC2357. The experiment in a line: Broth microdilution MIC. How it is done:
(§1) Test strains were cultured in a Mueller Hinton broth, and the antibacterial activities were determined by a broth microdilution assay. The test strains were grown to the mid-logarithmic phase, and diluted to a concentration of 10^5/ml with the same broth. 0.2 ml of the cells was added to each well of 96-well plates. The samples prepared in Examples 1 and 2 and Comparative Example 1 were serially diluted 2-fold, and added to the plates. The cells were incubated at 30° C. for 18 hrs, and cell growth was measured at 650 nm.
(§2) The antibacterial activity of Aceriphyllum rossii extract was determined with respect to Staphylococcus aureus, and the antibacterial activities of aceriphyllic acid A and 3-oxo-12-oleanen-27-oic acid were determined with respect to 15 different types of strains. Triclosan, oxacillin, and norfloxacin, which are commercially available antibiotics, were used for comparison.

For assay [2], the system named is Bacillus subtilis KCTC1021. The experiment in a line: Broth microdilution MIC. How it is done:
as §1, §2
A general note: Dilution methods test growth across graded concentrations, often in twofold steps.

Assay [3] concerns Enterococcus faecium KCTC3122. The experiment in a line: Broth microdilution MIC. The protocol: as §1, §2
Assay [4] deals with Micrococcus luteus KCTC1056. The experiment in a line: Broth microdilution MIC. The protocol: as §1, §2
Assay [5] has as its system Staphylococcus aureus 503. The experiment in a line: Broth microdilution MIC. The protocol:
as §1, §2

The test system of assay [6] is Staphylococcus aureus CCARM3167(MRSA). Description: Broth microdilution MIC. The protocol: as §1, §2
The subject of assay [7] is Staphylococcus aureus CCARM3505(QRSA). Description: Broth microdilution MIC. The protocol: as §1, §2
Assay [8] relates to Staphylococcus aureus CCARM3506(MRSA). The experiment in a line: Broth microdilution MIC. The protocol:
as §1, §2

For assay [9], the system named is Staphylococcus aureus CCARM3519(QRSA). The experiment in a line: Broth microdilution MIC. The protocol:
as §1, §2

Assay [10] concerns Staphylococcus aureus KCTC1916. Description: Broth microdilution MIC. The protocol: as §1, §2
The subject of assay [11] is Staphylococcus aureus RN4220. The experiment in a line: Broth microdilution MIC. The protocol:
as §1, §2

In assay [12] the test system is Streptococcus mutans KCTC3065. Description: Broth microdilution MIC. How it is done: as §1, §2
The test system of assay [13] is Streptococcus mutans KCTC3289. The experiment in a line: Broth microdilution MIC. How it is done: as §1, §2
Assay [14] deals with Streptococcus mutans KCTC5248. Description: Broth microdilution MIC. How it is done:
as §1, §2

In assay [15] the test system is Streptococcus pneumoniae KCTC3932. Description: Broth microdilution MIC. How it is done: as §1, §2
Assay [16] deals with Propionibacterium acnes ATCC6919. Description: Broth microdilution MIC, anaerobic RCMI liquid media. How it is done: Propionibacterium acnes was cultured in RCMI liquid media under anaerobic conditions, and the antibacterial activities were determined by a broth microdilution assay. The test strain was pre-cultured in liquid media at 37° C. for 1 to 2 days. 15 μl of test material dissolved in DMSO was added to 3 ml of broth to a concentration of 32 ppm. The sample was serially diluted 2-fold to prepare seven samples with different concentrations. The samples were added to the pre-cultured broth to a microbial concentration of 10^5-6 cfu/ml, and cultured for 1-3 days, followed by measurement of cell growth.
as §2

For assay [17], the system named is Staphylococcus aureus, methicillin-resistant S. aureus, and quinolone-resistant S. aureus. The experiment in a line: Broth microdilution MIC, summary over S. aureus strains. Conditions: range over Staphylococcus aureus, MRSA and QRSA strains (text summary of Table 2). How it is done: as §1, §2
Assay [18] has as its system Acinetobacter calcoaceticus, Micrococcus luteus, and Bacillus subtilis. Description: Broth microdilution MIC, text summary. Particulars: range over Acinetobacter calcoaceticus, Micrococcus luteus and Bacillus subtilis (text summary of Table 2). The protocol:
as §1, §2

For assay [19], the system named is cariogenic bacteria (Streptococcus mutans). Description: Broth microdilution MIC, for cariogenic bacteria. Conditions: Streptococcus mutans (text summary of Table 2). How it is done: as §1, §2
Setting [20] is: Staphylococcus aureus CCARM3167(MRSA), read-out: MIC.
[21] abbreviates: Staphylococcus aureus CCARM3505(QRSA), read-out: MIC.
Where [22] appears, read: Staphylococcus aureus CCARM3506(MRSA), read-out: MIC.
Where [23] appears, read: Staphylococcus aureus CCARM3519(QRSA), read-out: MIC.
Where [24] appears, read: Cutibacterium acnes, ATCC6919, Propionibacterium acnes (text summary of Table 2), read-out: MIC.
Where [25] appears, read: Propionibacterium acnes ATCC6919.

A word on the MIC: it is the lowest concentration found to suppress growth. As for `CC1(C)CC[C@]2(C)CC[C@@]3(C(=O)O)C(=CCC4[C@@]5(C)CCC(=O)C(C)(C)C5CC[C@]43C)C2C1` (stereo partly shown) [3-Oxo-12-oleanen-27-oic acid], the MIC in [1] (read-out: MIC) is 2 µg/mL (≈ 4.4 µM); in assay [2] (read-out: MIC), 2 µg/mL (≈ 4.4 µM); in assay [3] (read-out: MIC), greater than 64 µg/mL; in assay [4] (read-out: MIC), 2 µg/mL (≈ 4.4 µM); in assay [5] (read-out: MIC), 2 µg/mL (≈ 4.4 µM); in [6] (setting [20]), 4 µg/mL (≈ 8.8 µM). Further, the minimum inhibitory concentration (MIC) in assay [7] (setting [21]) was 8 µg/mL (≈ 17.6 µM); in assay [8] (setting [22]), 8 µg/mL (≈ 17.6 µM); in [9] (setting [23]), 8 µg/mL (≈ 17.6 µM); in assay [10] (read-out: MIC), 2 µg/mL (≈ 4.4 µM); in assay [11] it was 4 µg/mL (≈ 8.8 µM); in [12] (read-out: MIC), 4 µg/mL (≈ 8.8 µM). Besides, the MIC is 4 µg/mL (≈ 8.8 µM) in assay [13] (read-out: MIC); 4 µg/mL (≈ 8.8 µM) in assay [14] (read-out: MIC); 16 µg/mL (≈ 35.2 µM) in assay [15] (read-out: MIC); 2 µg/mL (≈ 4.4 µM) in [16] (setting [24]); 2 µg/mL (≈ 4.4 µM) in [16] (setting [25]); 2 to 8 µg/mL (≈ 4.4 to 17.6 µM) in assay [17]. The MIC in [18] was 1 to 2 µg/mL (≈ 2.2 to 4.4 µM); in assay [19], 4 µg/mL (≈ 8.8 µM).
As to `CC1(C)CC[C@]2(C)CC[C@@]3(C(=O)O)C(=CCC4[C@@]5(C)CC[C@@H](O)[C@@](C)(CO)C5CC[C@]43C)C2C1` (stereo partly shown) [Aceriphyllic acid A, Aceriphyllic Acid A], the MIC in assay [1] (read-out: MIC) was 2 µg/mL (≈ 4.23 µM); in assay [2] (read-out: MIC), 1 µg/mL (≈ 2.12 µM); in assay [3] (read-out: MIC) it was 8 µg/mL (≈ 16.9 µM); in assay [4] (read-out: MIC), 2 µg/mL (≈ 4.23 µM); in [5] (read-out: MIC), 2 µg/mL (≈ 4.23 µM); in assay [6] (setting [20]) it was 4 µg/mL (≈ 8.46 µM). Besides, the MIC in assay [7] (setting [21]) was determined as 4 µg/mL (≈ 8.46 µM); in [8] (setting [22]), 4 µg/mL (≈ 8.46 µM); in assay [9] (setting [23]) it was 4 µg/mL (≈ 8.46 µM); in [10] (read-out: MIC) it was 4 µg/mL (≈ 8.46 µM); in assay [11], 4 µg/mL (≈ 8.46 µM); in [12] (read-out: MIC) it was 2 µg/mL (≈ 4.23 µM). Further, the MIC in [13] (read-out: MIC) was 4 µg/mL (≈ 8.46 µM); in assay [14] (read-out: MIC), 2 µg/mL (≈ 4.23 µM); in [15] (read-out: MIC) it was 32 µg/mL (≈ 67.7 µM); in assay [16] (setting [24]) it was 2 µg/mL (≈ 4.23 µM); in assay [16] (setting [25]), 2 µg/mL (≈ 4.23 µM); in assay [17] it was 2 to 4 µg/mL (≈ 4.23 to 8.46 µM). Also, the MIC was 1 to 2 µg/mL (≈ 2.12 to 4.23 µM) in assay [18] and 2 to 4 µg/mL (≈ 4.23 to 8.46 µM) in assay [19].
Consider `CCn1cc(C(=O)O)c(=O)c2cc(F)c(N3CCNCC3)cc21` [Norfloxacin], for which the MIC in assay [1] (read-out: MIC) was 0.25 µg/mL (≈ 0.783 µM); in assay [2] (read-out: MIC), 0.25 µg/mL (≈ 0.783 µM); in [3] (read-out: MIC) it was 8 µg/mL (≈ 25.1 µM); in assay [4] (read-out: MIC) it was 2 µg/mL (≈ 6.26 µM); in [5] (read-out: MIC), 1 µg/mL (≈ 3.13 µM); in assay [6] (setting [20]), 8 µg/mL (≈ 25.1 µM). Also, the MIC stood at 250 µg/mL (≈ 783 µM) in assay [7] (setting [21]); 1 µg/mL (≈ 3.13 µM) in assay [8] (setting [22]); 125 µg/mL (≈ 391 µM) in assay [9] (setting [23]); 0.25 µg/mL (≈ 0.783 µM) in [10] (read-out: MIC); 1 µg/mL (≈ 3.13 µM) in assay [11]; 8 µg/mL (≈ 25.1 µM) in [12] (read-out: MIC). The MIC was 8 µg/mL (≈ 25.1 µM) in assay [13] (read-out: MIC), 8 µg/mL (≈ 25.1 µM) in assay [14] (read-out: MIC) and 2 µg/mL (≈ 6.26 µM) in assay [15] (read-out: MIC).
As to `Cc1onc(-c2ccccc2)c1C(=O)N[C@@H]1C(=O)N2[C@@H]1SC(C)(C)[C@@H]2C(=O)O` [Oxacillin], the MIC in [1] (read-out: MIC) was 0.125 µg/mL (≈ 0.311 µM); in assay [2] (read-out: MIC), 0.25 µg/mL (≈ 0.623 µM); in assay [3] (read-out: MIC), 2 µg/mL (≈ 4.98 µM); in assay [4] (read-out: MIC), 8 µg/mL (≈ 19.9 µM); in assay [5] (read-out: MIC) it was 0.25 µg/mL (≈ 0.623 µM); in assay [6] (setting [20]) it was 500 µg/mL (≈ 1250 µM). The MIC in assay [7] (setting [21]) came out at 0.5 µg/mL (≈ 1.25 µM); in assay [8] (setting [22]) it was 500 µg/mL (≈ 1250 µM); in assay [9] (setting [23]), 0.5 µg/mL (≈ 1.25 µM); in [10] (read-out: MIC), 0.25 µg/mL (≈ 0.623 µM); in [11], 0.25 µg/mL (≈ 0.623 µM); in assay [12] (read-out: MIC) it was 0.06 µg/mL (≈ 0.149 µM). For the same compound, the MIC in assay [13] (read-out: MIC) came to 0.06 µg/mL (≈ 0.149 µM); in [14] (read-out: MIC) it was 0.06 µg/mL (≈ 0.149 µM); in [15] (read-out: MIC), 2 µg/mL (≈ 4.98 µM).
In the case of `Oc1cc(Cl)ccc1Oc1ccc(Cl)cc1Cl` [Triclosan], the MIC in assay [1] is 0.003 µg/mL (≈ 0.0104 µM); in assay [2], 0.003 µg/mL (≈ 0.0104 µM); in [3] it was 4 µg/mL (≈ 13.8 µM); in [4], 1 µg/mL (≈ 3.45 µM); in [5], 0.006 µg/mL (≈ 0.0207 µM); in [6] (Staphylococcus aureus), 0.006 µg/mL (≈ 0.0207 µM). The MIC in assay [7] (Staphylococcus aureus, CCARM3505) stood at 0.006 µg/mL (≈ 0.0207 µM); in [8] (Staphylococcus aureus) it was 0.006 µg/mL (≈ 0.0207 µM); in assay [9] (Staphylococcus aureus, CCARM3519) it was 0.006 µg/mL (≈ 0.0207 µM); in assay [10], 0.006 µg/mL (≈ 0.0207 µM); in assay [11] it was 0.006 µg/mL (≈ 0.0207 µM); in [12], 1 µg/mL (≈ 3.45 µM). Also, the MIC is 1 µg/mL (≈ 3.45 µM) in assay [13], 1 µg/mL (≈ 3.45 µM) in [14] and 32 µg/mL (≈ 111 µM) in assay [15].

The record behind these values is US8574556B2, “Antibacterial pharmaceutical composition comprising Aceriphyllum rossii extract and active compounds isolated therefrom” (Korea Research Institute of Bioscience and Biotechnology, priority 2008, dated 2013).
